Reference: the kinase profiling compilation of Christmann-Franck et al. (2016)

Legend:
Experiment in all cases: radiometric filter-binding kinase assay, Kinase HotSpot
Settings in all cases: compound 0.5 µM; ATP 10 µM
[1] = molecular target: KIT (human) (UniProt P10721)
[2] = molecular target: BMX (human) (UniProt P51813)
[3] = molecular target: CDK9 CCNT1 (human) (UniProt P50750+O60563)
[4] = molecular target: NEK1 (human) (UniProt Q96PY6)
[5] = molecular target: CSNK2A1 (human) (UniProt P68400)
Chain of CSNK2A1 (human) (P68400 whole entry, looked up): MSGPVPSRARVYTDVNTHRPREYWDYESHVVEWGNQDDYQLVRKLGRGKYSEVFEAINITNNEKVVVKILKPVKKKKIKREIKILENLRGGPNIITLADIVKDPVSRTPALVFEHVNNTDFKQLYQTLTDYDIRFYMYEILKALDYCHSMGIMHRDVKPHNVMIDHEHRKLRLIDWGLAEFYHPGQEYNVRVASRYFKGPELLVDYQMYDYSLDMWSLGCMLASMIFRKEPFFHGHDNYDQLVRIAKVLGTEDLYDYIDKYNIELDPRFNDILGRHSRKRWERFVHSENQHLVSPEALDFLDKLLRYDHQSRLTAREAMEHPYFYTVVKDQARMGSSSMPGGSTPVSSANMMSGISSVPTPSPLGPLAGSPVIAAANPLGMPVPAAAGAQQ

[6] = molecular target: CDK4 CCND3 (human) (UniProt P30281+P11802)
[7] = test system: PRKCQ (human), Q04759 [P330L]
[8] = molecular target: MAP2K2 (human) (UniProt P36507)
[9] = molecular target: MAP3K2 (human) (UniProt Q9Y2U5)
[10] = molecular target: PKN1 (human) (UniProt Q16512)
[11] = molecular target: LRRK2 (human) (UniProt Q5S007)
[12] = molecular target: STK17A (human) (UniProt Q9UEE5)
[13] = test system: MKNK1 (human), Q9BUB5 [T385D; 165-205 del]
[14] = molecular target: NEK2 (human) (UniProt P51955)
[15] = molecular target: MAPK11 (human) (UniProt Q15759)
[16] = molecular target: MAPK10 (human) (UniProt P53779)
[17] = molecular target: MARK4 (human) (UniProt Q96L34)
[18] = test system: MAP2K6 (human), P52564 [S207E/T211E]
Chain of MAP2K6 (human), P52564 [S207E/T211E] (P52564 whole entry S207E/T211E, looked up): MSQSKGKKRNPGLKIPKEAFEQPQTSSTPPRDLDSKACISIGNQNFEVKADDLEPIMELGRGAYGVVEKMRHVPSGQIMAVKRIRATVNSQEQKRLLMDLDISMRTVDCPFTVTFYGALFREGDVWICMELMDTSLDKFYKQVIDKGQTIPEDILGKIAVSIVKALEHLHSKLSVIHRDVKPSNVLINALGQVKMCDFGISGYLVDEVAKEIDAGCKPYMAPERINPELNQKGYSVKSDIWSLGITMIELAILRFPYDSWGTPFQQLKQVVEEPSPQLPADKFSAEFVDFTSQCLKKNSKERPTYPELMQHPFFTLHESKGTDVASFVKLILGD

[19] = molecular target: PKN2 (human) (UniProt Q16513)
[20] = molecular target: BRSK2 (human) (UniProt Q8IWQ3)
[21] = molecular target: STK11 (human) (UniProt Q15831)
[22] = molecular target: INSR (human) (UniProt P06213)
Chain of INSR (human) (P06213 whole entry, looked up): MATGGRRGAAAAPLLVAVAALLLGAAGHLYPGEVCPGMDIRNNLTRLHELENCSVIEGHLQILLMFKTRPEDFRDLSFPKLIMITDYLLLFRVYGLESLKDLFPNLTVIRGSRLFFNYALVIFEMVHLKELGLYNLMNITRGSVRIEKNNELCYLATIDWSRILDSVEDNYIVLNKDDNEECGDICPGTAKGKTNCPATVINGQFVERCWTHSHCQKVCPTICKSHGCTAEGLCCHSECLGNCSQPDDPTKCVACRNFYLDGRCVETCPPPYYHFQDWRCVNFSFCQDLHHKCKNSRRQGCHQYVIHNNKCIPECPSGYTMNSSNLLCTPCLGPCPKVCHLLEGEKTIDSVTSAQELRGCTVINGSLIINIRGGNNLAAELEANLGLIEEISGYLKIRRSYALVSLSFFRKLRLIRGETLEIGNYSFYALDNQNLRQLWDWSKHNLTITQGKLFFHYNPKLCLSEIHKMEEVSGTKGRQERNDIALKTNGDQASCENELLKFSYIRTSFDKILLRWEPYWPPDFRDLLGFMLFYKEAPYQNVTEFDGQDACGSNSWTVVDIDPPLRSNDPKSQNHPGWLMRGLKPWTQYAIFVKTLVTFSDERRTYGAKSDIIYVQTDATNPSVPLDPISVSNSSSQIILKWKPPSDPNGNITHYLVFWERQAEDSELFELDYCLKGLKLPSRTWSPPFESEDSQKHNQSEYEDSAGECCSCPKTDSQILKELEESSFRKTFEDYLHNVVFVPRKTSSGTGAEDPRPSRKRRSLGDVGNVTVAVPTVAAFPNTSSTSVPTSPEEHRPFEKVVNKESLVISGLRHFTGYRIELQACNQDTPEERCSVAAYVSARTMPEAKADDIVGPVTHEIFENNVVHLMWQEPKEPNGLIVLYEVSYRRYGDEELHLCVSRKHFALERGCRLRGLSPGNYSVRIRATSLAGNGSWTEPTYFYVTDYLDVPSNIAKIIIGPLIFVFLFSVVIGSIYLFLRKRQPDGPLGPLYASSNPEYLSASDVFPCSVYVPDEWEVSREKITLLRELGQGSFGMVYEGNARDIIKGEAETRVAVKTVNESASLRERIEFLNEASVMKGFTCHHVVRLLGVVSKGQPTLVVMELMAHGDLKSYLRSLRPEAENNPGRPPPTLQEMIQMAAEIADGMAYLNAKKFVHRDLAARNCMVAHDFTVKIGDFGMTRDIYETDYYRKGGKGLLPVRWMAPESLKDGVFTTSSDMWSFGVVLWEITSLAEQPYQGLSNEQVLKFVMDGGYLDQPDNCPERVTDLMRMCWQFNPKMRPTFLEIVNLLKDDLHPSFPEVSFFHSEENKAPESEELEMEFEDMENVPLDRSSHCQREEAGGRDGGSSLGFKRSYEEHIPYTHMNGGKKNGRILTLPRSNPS

[23] = molecular target: HIPK3 (human) (UniProt Q9H422)
[24] = molecular target: FER (human) (UniProt P16591)
[25] = molecular target: MAPK14 (human) (UniProt Q16539)
[26] = molecular target: STK16 (human) (UniProt O75716)
[27] = molecular target: ZAP70 (human) (UniProt P43403)
[28] = molecular target: PAK2 (human) (UniProt Q13177)
[29] = molecular target: CDK1 CCNB1 (human) (UniProt P06493+P14635)
[30] = molecular target: STK10 (human) (UniProt O94804)
[31] = molecular target: FGR (human) (UniProt P09769)
[32] = molecular target: TBK1 (human) (UniProt Q9UHD2)
[33] = molecular target: SRPK2 (human) (UniProt P78362)
[34] = molecular target: CAMK1G (human) (UniProt Q96NX5)
[35] = molecular target: CDK2 CCNE1 (human) (UniProt P24941+P24864)
[36] = molecular target: CAMK1 (human) (UniProt Q14012)
Chain of CAMK1 (human) (Q14012 whole entry, looked up): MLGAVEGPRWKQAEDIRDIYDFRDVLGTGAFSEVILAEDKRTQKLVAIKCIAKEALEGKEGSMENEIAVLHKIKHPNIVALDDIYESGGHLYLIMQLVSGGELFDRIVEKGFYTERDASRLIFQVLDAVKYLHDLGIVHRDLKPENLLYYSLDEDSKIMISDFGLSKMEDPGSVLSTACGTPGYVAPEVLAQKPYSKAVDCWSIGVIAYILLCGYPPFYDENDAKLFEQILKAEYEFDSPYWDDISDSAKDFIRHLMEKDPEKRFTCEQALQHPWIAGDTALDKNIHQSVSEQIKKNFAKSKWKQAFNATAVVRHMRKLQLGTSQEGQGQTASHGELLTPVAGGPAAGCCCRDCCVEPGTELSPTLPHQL

[37] = molecular target: CAMK1D (human) (UniProt Q8IU85)
Chain of CAMK1D (human) (Q8IU85 whole entry, looked up): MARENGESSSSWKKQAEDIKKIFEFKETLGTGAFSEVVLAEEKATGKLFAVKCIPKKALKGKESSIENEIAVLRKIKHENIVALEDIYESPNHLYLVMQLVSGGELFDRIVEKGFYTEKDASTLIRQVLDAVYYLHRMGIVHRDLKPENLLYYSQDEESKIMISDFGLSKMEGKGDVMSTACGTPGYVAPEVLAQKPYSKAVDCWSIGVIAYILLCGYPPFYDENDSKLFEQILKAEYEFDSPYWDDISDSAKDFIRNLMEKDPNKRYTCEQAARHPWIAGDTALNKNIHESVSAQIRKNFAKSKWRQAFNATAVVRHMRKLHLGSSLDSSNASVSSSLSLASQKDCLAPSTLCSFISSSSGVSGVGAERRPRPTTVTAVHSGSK

[38] = molecular target: BTK (human) (UniProt Q06187)
[39] = molecular target: SRC (human) (UniProt P12931)
Chain of SRC (human) (P12931 whole entry, looked up): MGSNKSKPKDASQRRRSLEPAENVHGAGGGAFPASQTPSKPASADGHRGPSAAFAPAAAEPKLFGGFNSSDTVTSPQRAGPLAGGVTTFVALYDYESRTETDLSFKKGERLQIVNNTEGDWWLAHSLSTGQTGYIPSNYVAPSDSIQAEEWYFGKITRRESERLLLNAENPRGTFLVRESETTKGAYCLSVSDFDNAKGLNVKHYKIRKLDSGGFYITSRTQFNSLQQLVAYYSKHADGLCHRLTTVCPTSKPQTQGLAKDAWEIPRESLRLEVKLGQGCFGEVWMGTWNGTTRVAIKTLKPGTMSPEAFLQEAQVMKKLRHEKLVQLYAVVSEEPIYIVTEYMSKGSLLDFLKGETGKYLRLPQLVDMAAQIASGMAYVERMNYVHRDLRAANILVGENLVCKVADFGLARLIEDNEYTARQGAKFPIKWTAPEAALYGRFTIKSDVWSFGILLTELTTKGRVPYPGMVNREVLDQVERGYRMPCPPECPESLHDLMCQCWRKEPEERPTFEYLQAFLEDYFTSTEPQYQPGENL

[40] = molecular target: PTK6 (human) (UniProt Q13882)
[41] = molecular target: IRAK4 (human) (UniProt Q9NWZ3)

Chain of BMX (human) (P51813 whole entry, looked up): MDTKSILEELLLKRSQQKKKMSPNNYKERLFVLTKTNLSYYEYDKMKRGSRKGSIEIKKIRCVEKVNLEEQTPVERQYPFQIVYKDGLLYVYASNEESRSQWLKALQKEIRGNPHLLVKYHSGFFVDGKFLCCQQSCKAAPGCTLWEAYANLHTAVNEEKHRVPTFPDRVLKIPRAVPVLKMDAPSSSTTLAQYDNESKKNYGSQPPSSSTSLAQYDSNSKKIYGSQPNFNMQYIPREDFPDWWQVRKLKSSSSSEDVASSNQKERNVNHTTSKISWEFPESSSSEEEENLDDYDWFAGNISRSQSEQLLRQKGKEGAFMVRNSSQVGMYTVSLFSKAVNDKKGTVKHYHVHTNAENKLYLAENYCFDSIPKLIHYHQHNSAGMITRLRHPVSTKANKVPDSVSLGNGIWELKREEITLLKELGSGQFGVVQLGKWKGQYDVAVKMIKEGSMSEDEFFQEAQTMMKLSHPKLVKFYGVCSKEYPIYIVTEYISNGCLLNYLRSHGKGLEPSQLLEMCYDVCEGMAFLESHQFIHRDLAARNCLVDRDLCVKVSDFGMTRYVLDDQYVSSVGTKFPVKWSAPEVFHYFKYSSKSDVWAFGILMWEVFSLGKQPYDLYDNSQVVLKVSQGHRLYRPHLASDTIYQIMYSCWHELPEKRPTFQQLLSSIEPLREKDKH
Chain of KIT (human) (P10721 whole entry, looked up): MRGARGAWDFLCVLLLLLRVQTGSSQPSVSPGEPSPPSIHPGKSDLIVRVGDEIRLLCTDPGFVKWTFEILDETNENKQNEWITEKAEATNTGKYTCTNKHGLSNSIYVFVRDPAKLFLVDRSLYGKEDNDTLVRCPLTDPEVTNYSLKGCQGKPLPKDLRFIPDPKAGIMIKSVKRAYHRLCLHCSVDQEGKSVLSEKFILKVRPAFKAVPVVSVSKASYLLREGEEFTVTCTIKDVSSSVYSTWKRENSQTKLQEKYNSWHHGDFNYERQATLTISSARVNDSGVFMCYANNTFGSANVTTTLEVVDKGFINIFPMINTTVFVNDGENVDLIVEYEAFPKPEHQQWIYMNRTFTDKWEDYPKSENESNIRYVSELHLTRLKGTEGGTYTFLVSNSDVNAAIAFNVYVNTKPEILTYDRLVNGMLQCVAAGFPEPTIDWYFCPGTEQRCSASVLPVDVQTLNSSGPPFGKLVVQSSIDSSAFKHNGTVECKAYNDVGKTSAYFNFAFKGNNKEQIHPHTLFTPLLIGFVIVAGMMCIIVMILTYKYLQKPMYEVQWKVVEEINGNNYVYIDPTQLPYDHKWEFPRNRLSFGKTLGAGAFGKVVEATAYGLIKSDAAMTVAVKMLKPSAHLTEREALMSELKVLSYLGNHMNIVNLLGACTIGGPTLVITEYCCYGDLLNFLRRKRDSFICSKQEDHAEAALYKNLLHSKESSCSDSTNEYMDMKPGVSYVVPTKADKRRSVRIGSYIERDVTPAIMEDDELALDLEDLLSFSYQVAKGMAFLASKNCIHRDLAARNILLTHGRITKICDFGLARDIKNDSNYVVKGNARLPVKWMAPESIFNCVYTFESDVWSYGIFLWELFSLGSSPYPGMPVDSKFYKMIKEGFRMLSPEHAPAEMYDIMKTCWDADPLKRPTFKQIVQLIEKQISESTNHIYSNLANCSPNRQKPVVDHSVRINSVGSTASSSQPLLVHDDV

CCCCc1c(-c2ccc(OC)cc2)[nH]c2nccnc12
residual activity [1]: 82.9% | residual activity [2]: 82.2% | residual activity [3]: 55.2% | residual activity [4]: 86.9% | residual activity [5]: 97.8% | residual activity [6]: 69.7% | residual activity [7]: 107% | residual activity [8]: 79.4% | residual activity [9]: 90.9% | residual activity [10]: 89.1% | residual activity [11]: 83% | residual activity [12]: 95.5% | residual activity [13]: 97.7% | residual activity [14]: 115% | residual activity [15]: 100% | residual activity [16]: 97.2% | residual activity [17]: 88.3% | residual activity [18]: 96% | residual activity [19]: 88.6% | residual activity [20]: 90.8% | residual activity [21]: 74.5% | residual activity [22]: 97.6% | residual activity [23]: 99.9% | residual activity [24]: 59.8% | residual activity [25]: 112% | residual activity [26]: 58.7% | residual activity [27]: 74.2% | residual activity [28]: 97.5% | residual activity [29]: 47.7% | residual activity [30]: 95.4% | residual activity [31]: 57.1% | residual activity [32]: 81.4% | residual activity [33]: 105% | residual activity [34]: 102% | residual activity [35]: 42.1% | residual activity [36]: 90.9% | residual activity [37]: 97.9% | residual activity [38]: 64.7% | residual activity [39]: 58.8% | residual activity [40]: 30.4% | residual activity [41]: 163%

Cc1cccc(-c2nc(C(C)(C)C)[nH]c2-c2ccc3c(c2)OCO3)n1
residual activity [1]: 93.6% | residual activity [2]: 82% | residual activity [3]: 88.5% | residual activity [4]: 78.9% | residual activity [5]: 98% | residual activity [6]: 102% | residual activity [7]: 107% | residual activity [8]: 108% | residual activity [9]: 99.9% | residual activity [10]: 108% | residual activity [11]: 103% | residual activity [12]: 84.1% | residual activity [13]: 86.8% | residual activity [14]: 107% | residual activity [15]: 93% | residual activity [16]: 96% | residual activity [17]: 99.7% | residual activity [18]: 105% | residual activity [19]: 93.5% | residual activity [20]: 99.3% | residual activity [21]: 91.3% | residual activity [22]: 87.6% | residual activity [24]: 85.4% | residual activity [25]: 89.7% | residual activity [26]: 90.1% | residual activity [27]: 106% | residual activity [28]: 72.4% | residual activity [29]: 100% | residual activity [30]: 94.5% | residual activity [31]: 99.9% | residual activity [32]: 91.9% | residual activity [33]: 95.8% | residual activity [34]: 98.7% | residual activity [35]: 95.6% | residual activity [36]: 99.8% | residual activity [37]: 102% | residual activity [38]: 118% | residual activity [39]: 96% | residual activity [40]: 87.7% | residual activity [41]: 86.8%
